Tests used:
[1] = system: thale cress; test: Plant growth inhibition index, thale cress on agar medium in test tube (Evaluation 8, 9); assay type: in vivo, thale cress (Col-0, wild-type strain); set-up: key: 0: No effect; 1: Growth of the root part was inhibited 50% or less compared with non-treated area.; 2: Growth of the root part was inhibited 50% or more compared with non-treated area.; 3: Growth of the root part was substantially inhibited.; 4: Germination was inhibited; settings: for Index: Concentration 200 μM, 8 days (Evaluation 9, Table 2)
Procedure: 0.44% (w/v) Mixed salts for Murashige and Skoog medium (SIGMA), 1% (w/v) sucrose, and 0.05% (w/v) MES were mixed, and pH of the solution was adjusted to pH 5.7 with potassium hydroxide. 1.5% (w/v) Agar was added to the mixture, which was sterilized at 120° C. in an autoclave for 20 minutes. The test compound and dimethylformamide containing 1.5% of polyoxyethylenesorbitan monolaurate for a control experiment, were added at this stage and blended. In addition, the compound was used by adjusting an addition concentration to 200 μM. Four ml each of the medium was dispensed in sterile glass test tube ([…] RIKA GLASS CO., LTD.) to prepare agar medium.
As a plant material, Col-0, which is a wild-type strain of thale cress, was used.
Seeds, after their surfaces were sterilized, were planted on the agar medium, and the growth of the plant was carried out in a plant incubator (CFH-405) under the conditions of an illuminance of 3 at 23° C. with constant light. The plants on the agar medium were grown for 8 days in the chamber.
The plant growth inhibition effect of the compounds was evaluated by conversion to indexes according to the following investigation criteria.

[2] = system: velvet leaf; test: Spray treatment to stems and leaves, killing weed index (Evaluation 10); assay type: in vivo; settings: 2000 g active ingredient per hectare, two weeks later
Procedure: (§1) POA allyl phenyl ether (4.1 parts by weight), POE-POP glycol (1 part by weight), POE sorbitan laurate (0.8 parts by weight), glycerin (2.6 parts by weight), dimethylformamide (65.9 parts by weight), N-methylpyrrolidone (5.1 parts by weight), cyclohexanone (15.4 parts by weight), and aromatic hydrocarbon (5.1 parts by weight) were mixed and dissolved to prepare an emulsion. The compounds of the present invention (4 mg) were dissolved in this emulsion (100 μL) to prepare a test emulsion. In addition, POA means “polyoxyalkylene”, POE means “polyoxyethylene”, and POP means “polyoxypropylene.”
(§2) Four hundred μL of the above test emulsion was diluted with 7600 μL of water to use as a test spray liquid.
(§3) Further, 400 μL of the above test emulsion was diluted with 1600 μL of a 1% Tween20 aqueous solution to use as a spray liquid for a small amount spray test.
(§4) For a comparative spray liquid, 53 μL of a 30% pendimethalin emulsion (Gogosan emulsion: manufactured by BASF Japan) as a control pesticides was diluted with 7947 μL of water. Further, for a comparative spray liquid for a small amount spray test, 53 μL of the 30% pendimethalin emulsion was diluted with 1947 μL of water.
(§5) A 150 cm^2 pot was filled with a soil, seeds of each purple amaranth, Japanese bristlegrass, southern crabgrass, and velvet leaf were sown on the surface layer, lightly covered with a soil and grown in a greenhouse. When each plant grew to a plant height of 2 to 9 cm, the test spray liquid was sprayed to the stem and leaf parts with a small spraying machine such that an active ingredient amount was 2000 g per hectare and a sprayed liquid amount was 1000 L per hectare.
(§6) Similarly, the test spray liquid for a small amount spray test was sprayed to the stem and leaf parts with a small spraying machine such that an active ingredient amount was 2000 g per hectare and a sprayed liquid amount was 250 L per hectare.
(§7) Two weeks later, the above-ground grass weight in non-treated areas and the above-ground grass weight in treated areas, by the weed, were measured to calculate a killing weed rate by the following calculating formula.
(§8) (a) Calculating Formula of Weeding Rate Killing weed rate (%)=(above-ground grass weight in non-treated area−above-ground grass weight in treated area)/(above-ground grass weight in non-treated area)×100 (b) Killing Weed Indexes
(§9) The obtained killing weed rates were evaluated, such that a killing weed index was “10” when a killing weed rate is 100%, as “9” when a killing weed rate is 99% to 90%, “8” when a killing weed rate is 89% to 80%, “7” when a killing weed rate is 79% to 70%, “6” when a killing weed rate is 69% to 60%, “5” when a killing weed rate is 59% to 50%, “4” when a killing weed rate is 49% to 40%, “3” when a killing weed rate is 39% to 30%, “2” when a killing weed rate is 29% to 20%, “1” when a killing weed rate is 19% to 10%, and “0” when a killing weed rate is 9% to 0%.

[3] = system: southern crabgrass; test: as above; assay type: in vivo; settings: 2000 g active ingredient per hectare, two weeks later
Procedure: as §1, §2, §3, §4, §5, §6, §7, §8, §9

[4] = system: Japanese bristlegrass; test: as above; assay type: in vivo; settings: 2000 g active ingredient per hectare, two weeks later
Procedure: as §1, §2, §3, §4, §5, §6, §7, §8, §9

[5] = system: purple amaranth; test: as above; assay type: in vivo; settings: 2000 g active ingredient per hectare, two weeks later
Procedure: as §1, §2, §3, §4, §5, §6, §7, §8, §9

[6] = system: morning glory; test: Seed treatment, plant growth inhibition index (Evaluation 11); assay type: in vivo; set-up: key: 0: No effect; 1: Growth of the root part was inhibited 50% or less compared with non-treated area.; 2: Growth of the root part was inhibited 50% or more compared with non-treated area.; 3: Growth of the root part was substantially inhibited.; 4: Germination was inhibited
Procedure: (§10) The compound of the present invention (2 mg) was dissolved in a 1.5% Tween dimethylformamide solution (100 μL) to use as a test chemical solution.
(§11) Eight mL of sterilized water was poured to a cherry cup (100Φ×45 mm) lined with a filter paper, subsequently 81.1 μL of the sterilized water was removed, and 81.1 μL of the test chemical solution was added such that a final concentration of the compound was 800 μM.
(§12) Further, cherry cups were similarly prepared such that a final concentration of the compound was 200 μM.
(§13) Seeds (Japanese millet: 3 grains, velvet leaf: 6 grains, Ragweed: 8 grains, morning glory: 2 grains) were planted on the filter paper in the cherry cups, followed by growing the plants in a thermostatic chamber at 25° C. under a light-dark cycle in which a light period is 12 hours and a dark period is 12 hours for 6 days.
(§14) In addition, with regards to the compound (9a) and the compound (9b), the plants were tested for 7 days.
(§15) Plant growth inhibition effects of the compounds were evaluated by conversion to indexes according to the following investigation criteria.

[7] = system: Ragweed; test: as above; assay type: in vivo; set-up: key: 0: No effect; 1: Growth of the root part was inhibited 50% or less compared with non-treated area.; 2: Growth of the root part was inhibited 50% or more compared with non-treated area.; 3: Growth of the root part was substantially inhibited.; 4: Germination was inhibited
Procedure: as §10, §11, §12, §13, §14, §15

[8] = system: velvet leaf; test: as above; assay type: in vivo; set-up: key: 0: No effect; 1: Growth of the root part was inhibited 50% or less compared with non-treated area.; 2: Growth of the root part was inhibited 50% or more compared with non-treated area.; 3: Growth of the root part was substantially inhibited.; 4: Germination was inhibited
Procedure: as §10, §11, §12, §13, §14, §15

[9] = system: Japanese millet; test: as above; assay type: in vivo; set-up: key: 0: No effect; 1: Growth of the root part was inhibited 50% or less compared with non-treated area.; 2: Growth of the root part was inhibited 50% or more compared with non-treated area.; 3: Growth of the root part was substantially inhibited.; 4: Germination was inhibited
Procedure: as §10, §11, §12, §13, §14, §15

[10] = sprayed liquid amount 1000 L/ha
[11] = 200 μM, 6 days (9a, 9b: 7 days)

| SMILES | index on the plant growth inhibition effect ([1]; 200 μM, 8 days (Evaluation 8)) | killing weed index, Velvet leaf ([2]; sprayed liquid amount 250 L/ha) | killing weed index, Velvet leaf [2, 10] | killing weed index, Southern crabgrass ([3]; sprayed liquid amount 250 L/ha) | killing weed index, Southern crabgrass [3, 10] | killing weed index, Japanese bristlegrass ([4]; sprayed liquid amount 250 L/ha) | killing weed index, Japanese bristlegrass [4, 10] | killing weed index, Purple amaranth ([5]; sprayed liquid amount 250 L/ha) | killing weed index, Purple amaranth [5, 10] | plant growth inhibition index, Morning glory [6, 11] | plant growth inhibition index, Morning glory ([6]; 800 μM, 6 days) | plant growth inhibition index, Ragweed [7, 11] | plant growth inhibition index, Ragweed ([7]; 800 μM, 6 days) | plant growth inhibition index, Velvet leaf [8, 11] | plant growth inhibition index, Velvet leaf ([8]; 800 μM, 6 days) | plant growth inhibition index, Japanese millet [9, 11] | plant growth inhibition index, Japanese millet ([9]; 800 μM, 6 days) | Index [1] |
| --- | --- | --- | --- | --- | --- | --- | --- | --- | --- | --- | --- | --- | --- | --- | --- | --- | --- | --- |
| CCCCCCCCCOn1cccc1C(=O)O [Compound 8b] | 4 | 6 (“6” when a killing weed rate is 69% to 60%) | 0 (“0” when a killing weed rate is 9% to 0%) | 2 (“2” when a killing weed rate is 29% to 20%) | 4 (“4” when a killing weed rate is 49% to 40%) | 5 (“5” when a killing weed rate is 59% to 50%) | 5 (“5” when a killing weed rate is 59% to 50%) | 8 (“8” when a killing weed rate is 89% to 80%) | 3 (“3” when a killing weed rate is 39% to 30%) | 3 (Growth of the stem and leave parts was inhibited 30% or more compared with non-treated area, or growth of the only root part was inhibited 60% or more compared with non-treated area.) | 8 (Growth of the stem and leave parts was inhibited 80% or more compared with non-treated area.) | 3 (Growth of the stem and leave parts was inhibited 30% or more compared with non-treated area, or growth of the only root part was inhibited 60% or more compared with non-treated area.) | 9 (Growth of the stem and leave parts was inhibited 90% or more compared with non-treated area.) | 0 | 8 (Growth of the stem and leave parts was inhibited 80% or more compared with non-treated area.) | 3 (Growth of the stem and leave parts was inhibited 30% or more compared with non-treated area, or growth of the only root part was inhibited 60% or more compared with non-treated area.) | 10 |  |
| CCCCCOn1cc(-c2ccccc2)cc1C(=O)O [Compound 9a, 1-Pentyloxy-4-phenyl-1H-pyrrole-2-carboxylic acid] |  | 3 (“3” when a killing weed rate is 39% to 30%) |  | 2 (“2” when a killing weed rate is 29% to 20%) |  | 3 (“3” when a killing weed rate is 39% to 30%) |  | 8 (“8” when a killing weed rate is 89% to 80%) |  | 0 |  | 0 |  | 0 |  | 3 (Growth of the stem and leave parts was inhibited 30% or more compared with non-treated area, or growth of the only root part was inhibited 60% or more compared with non-treated area.) |  | 4 |
| CCCCCCCCCOn1cc(Cl)cc1C(=O)O [Compound 9b] |  | 2 (“2” when a killing weed rate is 29% to 20%) |  | 2 (“2” when a killing weed rate is 29% to 20%) |  | 3 (“3” when a killing weed rate is 39% to 30%) |  | 10 (“10” when a killing weed rate is 100%) |  | 3 (Growth of the stem and leave parts was inhibited 30% or more compared with non-treated area, or growth of the only root part was inhibited 60% or more compared with non-treated area.) |  | 0 |  | 0 |  | 0 |  | 3 |
| CCCCCCCCCOn1cccc1C(=O)NC [Compound 9d] |  | 3 (“3” when a killing weed rate is 39% to 30%) | 0 (“0” when a killing weed rate is 9% to 0%) | 3 (“3” when a killing weed rate is 39% to 30%) | 2 (“2” when a killing weed rate is 29% to 20%) | 2 (“2” when a killing weed rate is 29% to 20%) | 1 (“1” when a killing weed rate is 19% to 10%) | 0 (“0” when a killing weed rate is 9% to 0%) | 0 (“0” when a killing weed rate is 9% to 0%) | 0 |  | 3 (Growth of the stem and leave parts was inhibited 30% or more compared with non-treated area, or growth of the only root part was inhibited 60% or more compared with non-treated area.) |  | 0 |  | 3 (Growth of the stem and leave parts was inhibited 30% or more compared with non-treated area, or growth of the only root part was inhibited 60% or more compared with non-treated area.) |  | 3 |
